Test results from publication PMC12526400, “Insight into Cytotoxic Potential of Erica spiculifolia Salisb (Balkan Heath)” (Plants, 2025).
In brackets after ≈: the same amount, converted by molar mass. Several values for one entry are separate records, joined by “and”; a condition that tells them apart may be missing. Equal entries are not always repeated. Entries after “also recorded” stand apart in the source; their conditions may differ. Where two headings read alike, the source gives them in different places.

What was measured:
LAMA-84 cells = assay: MTT cytotoxicity, LAMA-84; assay type: cell-based, human
Source text: (§1) To evaluate the anticancer potential of the studied E. spiculifolia extract, we employed a diverse panel of human cancer cell lines alongside a non-malignant control. The hematological models included LAMA-84, a chronic myeloid leukemia line harboring the Philadelphia chromosome [t(9;22)], and HL-60, an acute promyelocytic leukemia line characterized by the t(15;17) translocation. These suspension cultures allowed us to assess the effects on leukemic cells with distinct genetic drivers. In parallel, we investigated the antitumor activity of the plant extract against reproductive system-associated carcinomas, including breast carcinoma cells (MCF-7 and MDA-MB-231) and a cervical cancer cell line (CASKI). MCF-7 cells are hormone-responsive and widely used to model estrogen receptor-positive disease, whereas MDA-MB-231 cells are triple-negative, highly aggressive, and resistant to conventional anti-hormonal therapy. To further broaden the spectrum, we included CASKI, a cervical carcinoma line associated with HPV16 infection, thereby extending the analysis to virally driven epithelial cancer. In addition, normal murine fibroblast cells (CCL-1) were used as a non-malignant comparator, enabling an assessment of selectivity between normal and malignant cells. The presence and degree of tumor selectivity was assessed by calculating the correspondent selectivity indices (SI, selectivity index), defined as the ratio between the half-inhibitory concentrations of the extract in healthy and malignant cells (Table 2).
(§2) The antiproliferative activity of the extract, gallic, oleanolic, and protocatechuic acids was screened against human malignant cell lines of hematological (LAMA-84, HL-60) and epithelial (MDA-MB-231, MCF-7, CASKI) origin, as well as normal murine fibroblast cells (CCL-1). All cell lines were purchased from the German Collection of Microorganisms and Cell Cultures (DSMZ GmbH, Braunschweig, Germany). Cell cultures were cultivated in a growth medium RPMI 1640 supplemented with 10% fetal bovine serum (FBS), 5% L-glutamine, and incubated under standard conditions of 37 °C and 5% humidified CO2 atmosphere.
(§3) The cytotoxic potential of the E. spiculifolia extract was studied using a validated method for assessing cell viability known as the Mosmann MTT test. The assay is colorimetric and measures the activity of mitochondrial enzymes, reducing the yellow dye MTT (3-(4,5-dimethylthiazol-2-yl)-2,5-diphenyltetrazolium bromide) to violet formazan crystals. According to protocol, exponential-phased cells were harvested and seeded (100 μL/well) in 96-well plates at the appropriate density. Following a 24 h incubation, cells were treated with serial dilutions of the extract in the concentration range 1000–31.3 μg/mL. Following a 72 h exposure, filter sterilized MTT substrate solution (5 mg/mL in PBS) was added to each well of the culture plate. A further 4h incubation allowed the reduction of the yellow MTT reagent into purple formazan crystals in metabolically active viable cells, which were dissolved in an isopropyl alcohol solution containing 5% formic acid prior to absorbance measurement at 550 nm. Untreated cells (100% cell viability) were used as negative control. Cisplatin was used as positive control.
(§4) Collected absorbance values were blanked against MTT and isopropanol solution and normalized to the mean value of untreated control (100% cell viability). The obtained data were fitted to “concentration-effect” curves and analyzed by means of non-linear regression in the GraphPad Prism 8.0 software. Statistical analyses were performed using one-way analysis of variance (ANOVA) to assess differences among experimental groups. Where significant differences were detected, post hoc comparisons were conducted using Tukey’s test.

[1] = test system: CCL-1 normal murine fibroblast cells; assay: MTT cytotoxicity, normal fibroblasts CCL-1; assay type: cell-based
Source text: as §1, §2
as §3, with “Following a 72 h exposure, filter sterilized MTT substrate solution (5 mg/mL in PBS) was added to each well of the culture plate.” left out, “Untreated cells (100% cell viability) were used as negative control. Cisplatin was used as positive control.” left out
Collected absorbance values were blanked against MTT and isopropanol solution and normalized to the mean value of untreated control (100% cell viability). The obtained data were fitted to “concentration-effect” curves and analyzed by means of non-linear regression in the GraphPad Prism 8.0 software. […] Where significant differences were detected, post hoc comparisons were conducted using Tukey’s test.

CASKI cells = assay: MTT cytotoxicity, CASKI; assay type: cell-based, human
Source text: as §1, §2, §3, §4

MDA-MB-231 cells = assay: MTT cytotoxicity, MDA-MB-231; assay type: cell-based, human
Source text: as §1, §2, §3, §4

MCF-7 cells = assay: MTT cytotoxicity, MCF-7; assay type: cell-based, human
Source text: as §1, §2, §3, §4

HL-60 cells = assay: MTT cytotoxicity, HL-60; assay type: cell-based, human
Source text: as §1, §2, §3, §4

[2] = test system: cancer versus normal cell models; set-up: method as in PMID 36297448, doi:10.13005/bpj/3133, PMID 37108571; conditions: depending on the cancer versus normal cell models applied; cited from earlier work
[3] = test system: triple-negative MDA-MB-231 breast cancer cells; set-up: method as in doi:10.3724/SP.J.1145.2010.00202; conditions: cited from earlier work
[4] = test system: hepatocellular carcinoma HuH7 cells; set-up: method as in PMID 20415421; conditions: cited from earlier work
HCT116 = test system: HCT116; set-up: method as in PMID 30928277; conditions: cited from earlier work
SW480 = test system: SW480; set-up: method as in PMID 30928277; conditions: cited from earlier work
[5] = Homo sapiens, LAMA-84, MTT, 72 h exposure, bcr-abl+ chronic myeloid leukemia, read-out: IC50 LAMA-84 (converted)
[6] = Homo sapiens, LAMA-84, MTT, 72 h exposure, molar equivalent in brackets, read-out: IC50 LAMA-84 (converted)
[7] = Mus musculus, MTT, 72 h exposure, normal murine fibroblast cells, read-out: IC50 CCL-1 (converted)
[8] = Homo sapiens, Ca-Ski, MTT, 72 h exposure, cervical cancer, read-out: IC50 CASKI (converted)
[9] = Homo sapiens, MDA-MB-231, MTT, 72 h exposure, triple-negative breast carcinoma, read-out: IC50 MDA-MB-231 (converted)
[10] = Homo sapiens, MCF7, MTT, 72 h exposure, hormone-responsive breast carcinoma, read-out: IC50 MCF-7 (converted)
[11] = Homo sapiens, HL-60, MTT, 72 h exposure, promyelocytic leukemia, read-out: IC50 HL-60 (converted)
[12] = 72 h, concentrations up to 500 μg/mL

With `N.N.[Cl][Pt][Cl]` [cisplatin, reference compound] the “IC50 LAMA-84” value (LAMA-84 cells; MTT, 72 h exposure, bcr-abl+ chronic myeloid leukemia) was 11.4 ± 0.99 µg/mL, the IC50 (LAMA-84 cells; MTT, 72 h exposure, molar equivalent in brackets, read-out: IC50 LAMA-84 (converted)) was 37.8 µM and the “SI LAMA-84” value (LAMA-84 cells; selectivity index = IC50 in CCL-1 / IC50 in LAMA-84) was <1. The IC50 ([1]; MTT, 72 h exposure, molar equivalent in brackets, read-out: IC50 CCL-1 (converted)) was 18.7 µM, the “IC50 CCL-1” value ([1]; MTT, 72 h exposure, normal murine fibroblast cells) was 5.6 ± 0.7 µg/mL and the “IC50 CASKI” value (CASKI cells; MTT, 72 h exposure, cervical cancer) was 14.6 ± 1.9 µg/mL. For the same compound, the IC50 (CASKI cells; MTT, 72 h exposure, molar equivalent in brackets, read-out: IC50 CASKI (converted)) was 48.6 µM, the “SI CASKI” value (CASKI cells; selectivity index = IC50 in CCL-1 / IC50 in CASKI) was <1 and the IC50 (MDA-MB-231 cells; MTT, 72 h exposure, molar equivalent in brackets, read-out: IC50 MDA-MB-231 (converted)) was 57.1 µM. For the same compound, the “IC50 MDA-MB-231” value (MDA-MB-231 cells; MTT, 72 h exposure, triple-negative breast carcinoma) was 17.2 ± 1.3 µg/mL, the “SI MDA-MB-231” value (MDA-MB-231 cells; selectivity index = IC50 in CCL-1 / IC50 in MDA-MB-231) was <1 and the “IC50 MCF-7” value (MCF-7 cells; MTT, 72 h exposure, hormone-responsive breast carcinoma) was 15.5 ± 1.7 µg/mL. The IC50 (MCF-7 cells; MTT, 72 h exposure, molar equivalent in brackets, read-out: IC50 MCF-7 (converted)) was 51.6 µM, the “SI MCF-7” value (MCF-7 cells; selectivity index = IC50 in CCL-1 / IC50 in MCF-7) was <1 and the IC50 (HL-60 cells; MTT, 72 h exposure, molar equivalent in brackets, read-out: IC50 HL-60 (converted)) was 8.9 µM. For the same compound, the “IC50 HL-60” value (HL-60 cells; MTT, 72 h exposure, promyelocytic leukemia) was 2.7 ± 0.4 µg/mL, the “SI HL-60” value (HL-60 cells; selectivity index = IC50 in CCL-1 / IC50 in HL-60) was 2.1 and the “SI values typically reported” value [2] was 1–40.
For `COc1cccc2c1C(=O)c1c(O)c3c(c(O)c1C2=O)C[C@@](O)(C(=O)CO)C[C@@H]3O[C@H]1C[C@H](N)[C@H](O)[C@H](C)O1` [doxorubicin], the “SI values typically reported” value [2] is listed as 1–40.
For `O=C(O)c1cc(O)c(O)c(O)c1` [gallic acid], the IC50 (LAMA-84 cells; [5]) was 6.2 µg/mL, the IC50 (LAMA-84 cells; [6]) was 36.4 µM and the IC50 [1, 7] was > 500 µg/mL. For the same compound, the “cytotoxicity against CASKI (in words)” value (CASKI cells; 72 h exposure) was “inactive”, the IC50 (CASKI cells; [8]) was > 500 µg/mL and the IC50 (MDA-MB-231 cells; [9]) was > 500 µg/mL. The IC50 (MCF-7 cells; [10]) was > 500 µg/mL and the IC50 (HL-60 cells; [11]) was > 500 µg/mL.
In the case of `CC1(C)CC[C@]2(C(=O)O)CC[C@]3(C)C(=CC[C@@H]4[C@@]5(C)CC[C@H](O)C(C)(C)[C@@H]5CC[C@]43C)[C@@H]2C1` [oleanolic acid], the IC50 (LAMA-84 cells; [5]) is listed as 1.7 µg/mL, the IC50 (LAMA-84 cells; [6]) is listed as 3.7 µM and the “IC50 MDA-MB-231 (previous studies)” value [3] is listed as 38.8 µg/mL (≈ 85 µM). The IC50 [1, 7] was > 500 µg/mL, the “cytotoxicity against CASKI (in words)” value (CASKI cells; 72 h exposure) was “inactive” and the IC50 (CASKI cells; [8]) was > 500 µg/mL. The “cytotoxicity against MDA-MB-231 (in words)” value (MDA-MB-231 cells; [12]) was “inactive; also recorded: did not exert cytotoxic effects”, the IC50 (MDA-MB-231 cells; [9]) was > 500 µg/mL and the “cytotoxicity against MCF-7 (in words)” value (MCF-7 cells; [12]) was “inactive; also recorded: did not exert cytotoxic effects”. The IC50 (MCF-7 cells; [10]) was > 500 µg/mL, the IC50 (HL-60 cells; [11]) was > 500 µg/mL and the IC50 [4] was 100 µM.
For `O=C(O)c1ccc(O)c(O)c1` [protocatechuic acid], the IC50 (LAMA-84 cells; Homo sapiens, LAMA-84, 72 h, read-out: IC50 LAMA-84) was > 500 µg/mL and > 3.24 mM, the IC50 ([1]; Mus musculus, Fibroblast, 72 h, read-out: IC50 CCL-1) was > 500 µg/mL and the IC50 (CASKI cells; Homo sapiens, Ca-Ski, 72 h, read-out: IC50 CASKI) was > 500 µg/mL. The IC50 (MDA-MB-231 cells; Homo sapiens, MDA-MB-231, 72 h, read-out: IC50 MDA-MB-231) was 311 µg/mL, the IC50 (MCF-7 cells; Homo sapiens, MCF7, 72 h, read-out: IC50 MCF-7) was > 500 µg/mL and the IC50 (HL-60 cells; Homo sapiens, HL-60, 72 h, read-out: IC50 HL-60) was > 500 µg/mL.
For `C[C@H]1[C@H](C)CC[C@]2(C(=O)O)CC[C@]3(C)C(=CC[C@@H]4[C@@]5(C)CC[C@H](O)C(C)(C)[C@@H]5CC[C@]43C)[C@H]12` [ursolic acid], the IC50 (HCT116) is given as 13 µM, the IC50 [4] is given as 75 µM and the IC50 (SW480) is given as 10.2 µM.
